The values that follow are results of earlier work, collected in patent US20100041622A1, “Compositions containing aminoalkanes and aminoalkane derivatives” (priority 2008, published 2010).

The first data set concerns vasoconstrictor activity (blood pressure of pithed animal subject). Particulars: average epinephrine equivalent per 1 mg of sulfate derivative.
Turning to `CC(C)C(C)CCN` (centres unmarked) [1-amino-3,4-dimethylpentane], the “Epinephrine equivalent (micrograms (μg)) of 1 mg of the sulfate salt of the aminoalkane” value (“Epinephrine equivalent (micrograms (μg))” below) was 1.720 µg.

Consider `CC(C)CC(C)CCN` (centres unmarked) [1-amino-3,5-dimethylhexane], for which the “Epinephrine equivalent (micrograms (μg))” value is 0.660 µg.

Consider `CC(C)CCN` [1-amino-3-methyl butane], for which the “Epinephrine equivalent (micrograms (μg))” value was 0.238 µg.

Regarding `CCC(C)CCN` (centres unmarked) [1-amino-3-methyl pentane], the “Epinephrine equivalent (micrograms (μg))” value is 0.193 µg.

With `CCCCC(C)CCN` (centres unmarked) [1-amino-3-methylheptane], the “Epinephrine equivalent (micrograms (μg))” value is 1.230 µg.

For `CCCC(C)CCN` (centres unmarked) [1-amino-3-methylhexane], the “Epinephrine equivalent (micrograms (μg))” value is 0.108 µg.

Consider `CC(C)CCCN` [1-amino-4-methyl pentane], for which the “Epinephrine equivalent (micrograms (μg))” value is 0.530 µg.

As to `CCCCCCCN` [1-amino-heptane], the “Epinephrine equivalent (micrograms (μg))” value is 0.276 µg.

As to `CCCCCCN` [1-amino-hexane], the “Epinephrine equivalent (micrograms (μg))” value was 0.766 µg.

`CCCCCCCCN` [1-amino-octane]: the “Epinephrine equivalent (micrograms (μg))” value is listed as “nil”.

Turning to `CCCCCN` [1-amino-pentane], the “Epinephrine equivalent (micrograms (μg))” value was 0.210 µg.

As to `CC(C)CCC(C)C(C)N` (centres unmarked) [2-amino-3,6-dimethylheptane], the “Epinephrine equivalent (micrograms (μg))” value was 0.910 µg.

Regarding `CCCCCC(O)C(C)N` (centres unmarked) [2-amino-3-hydroxy-octane], the “Epinephrine equivalent (micrograms (μg))” value is 0.122 µg.

For `CCCCC(C)C(C)N` (centres unmarked) [2-amino-3-methylheptane], the “Epinephrine equivalent (micrograms (μg))” value was 0.530 µg.

For the compound `CCCC(C)C(C)N` (centres unmarked) [2-amino-3-methylhexane], the “Epinephrine equivalent (micrograms (μg))” value was 0.858 µg.

On to `CC(N)CC(C)(C)C` (centres unmarked) [2-amino-4,4-dimethylpentane], for which the “Epinephrine equivalent (micrograms (μg))” value was 0.083 µg.

Turning to `CC(N)CC(C)CC(C)(C)C` (centres unmarked) [2-amino-4,6,6-trimethylheptane], the “Epinephrine equivalent (micrograms (μg))” value is recorded as “nil”.

As for `CC(C)CC(C)CC(C)N` (centres unmarked) [2-amino-4,6-dimethylheptane], the “Epinephrine equivalent (micrograms (μg))” value was 0.193 µg.

In the case of `CCCCCCC(C)CC(C)N` (centres unmarked) [2-amino-4-methyldecane], the “Epinephrine equivalent (micrograms (μg))” value was 0.242 µg.

As for `CCCC(C)CC(C)N` (centres unmarked) [2-amino-4-methylheptane], the “Epinephrine equivalent (micrograms (μg))” value is 0.786 µg.

As for `CCC(C)CC(C)N` (centres unmarked) [2-amino-4-methylhexane], the “Epinephrine equivalent (micrograms (μg))” value is 3.520 µg.

Turning to `CCCCC(C)CC(C)N` (centres unmarked) [2-amino-4-methyloctane], the “Epinephrine equivalent (micrograms (μg))” value was 0.475 µg.

`CC(C)CC(C)N` (centres unmarked) [2-amino-4-methylpentane]: the “Epinephrine equivalent (micrograms (μg))” value was 0.840 µg.

On to `CCC(CC)CCC(C)N` (centres unmarked) [2-amino-5-ethylheptane], for which the “Epinephrine equivalent (micrograms (μg))” value is 0.358 µg.

On to `CCC(C)CCC(C)N` (centres unmarked) [2-amino-5-methylheptane], for which the “Epinephrine equivalent (micrograms (μg))” value was 0.980 µg.

On to `CC(C)CCC(C)N` (centres unmarked) [2-amino-5-methylhexane], for which the “Epinephrine equivalent (micrograms (μg))” value was 1.560 µg.

Consider `C=C(C)CCC(C)N` (centres unmarked) [2-amino-5-methylhexene-5], for which the “Epinephrine equivalent (micrograms (μg))” value is 0.504 µg.

Turning to `CC(C)CCCC(C)N` (centres unmarked) [2-amino-6-methylheptane], the “Epinephrine equivalent (micrograms (μg))” value was 2.620 µg.

For the compound `CC(C)=CCCC(C)N` (centres unmarked) [2-amino-6-methylheptene-5], the “Epinephrine equivalent (micrograms (μg))” value is 0.391 µg.

With `C=CCCC(C)N` (centres unmarked) [2-amino-hexene-5], the “Epinephrine equivalent (micrograms (μg))” value is 0.193 µg.

For the compound `CCCCCCC(C)N` (centres unmarked) [2-amino-octane], the “Epinephrine equivalent (micrograms (μg))” value was 0.510 µg.

For `CCCC(C)N` (centres unmarked) [2-amino-pentane], the “Epinephrine equivalent (micrograms (μg))” value was 0.395 µg.

`CCCCCC(C)N` (centres unmarked) [2-aminoheptane]: the “Epinephrine equivalent (micrograms (μg))” value is 3.100 µg.

As for `CCCCC(C)N` (centres unmarked) [2-aminohexane], the “Epinephrine equivalent (micrograms (μg))” value is 0.901 µg.

As to `CCC(N)CCC(C)C` (centres unmarked) [3-amino-6-methylheptane], the “Epinephrine equivalent (micrograms (μg))” value is given as “nil”.

`CCCCCC(N)CC` (centres unmarked) [3-amino-octane]: the “Epinephrine equivalent (micrograms (μg))” value is 0.142 µg.

With `CCCCC(N)CC` (centres unmarked) [3-aminoheptane], the “Epinephrine equivalent (micrograms (μg))” value is 0.149 µg.

Consider `CC(C)CC(N)CC(C)C` [4-amino-2,6-dimethylheptane], for which the “Epinephrine equivalent (micrograms (μg))” value is on record as “nil”.

For the compound `CCCC(N)CCC` [4-aminoheptane], the “Epinephrine equivalent (micrograms (μg))” value was 0.048 µg.

The next data set deals with vasoconstrictor activity. The conditions noted are these: see U.S. Pat. No. 2,350,318.
Consider `CCC(C)CC(C)N` (centres unmarked) [2-amino-4-methylhexane], for which the “vasoconstrictor activity compared to ephedrine or amphetamine” value is “greater vasoconstrictor activity”.

Test system in the next data set: not given
Particulars: hydrophilic-lipophilic balance value, known values.
Regarding `CCCCCCCCCCCCCCCCCC(=O)OCC(O)CO` (centres unmarked) [Glyceryl Stearate], the HLB is 3.5.

With Nonoxynol-9, the HLB is 12.9.

For the compound PEG-4 lauryl ether, the HLB is on record as 9.7.

As for PEG-100 Stearate, the HLB is given as 18.8.

Take Phosphatidylcholine: the HLB is 7.6.

On to Sorbitan Palmitate, for which the HLB was 6.7.

For Sorbitan monostearate, the HLB is reported as 4.7.
